The NIST ThermoML archive (doi:10.1016/j.fluid.2014.09.014)

Experiment: refractive index (other wavelength) (dimensionless); xn = mol fraction of the nth substance listed
Conditions: 298.15 K, 101 kPa, Liquid, Standard Abbe refractometry

CC(C)OC(C)C [diisopropyl ether] + CC(C)O
refractive index
Conditions | Wavelength=435.8 nm | Wavelength=486.1 nm | Wavelength=546.1 nm | Wavelength=587.6 nm
x1 = 0.0277 | – | 1.37932 | 1.37648 | 1.37498
x1 = 0.0507 | – | 1.37925 | 1.37639 | 1.37488
x1 = 0.051 | – | 1.37929 | 1.37644 | 1.37491
x1 = 0.0717 | 1.38247 | 1.37903 | 1.37618 | 1.37468
x1 = 0.1528 | 1.38186 | 1.37841 | 1.37557 | 1.37406
x1 = 0.1553 | 1.38186 | 1.37841 | 1.37557 | 1.37406
x1 = 0.1938 | 1.38158 | 1.37814 | 1.3753 | 1.37379
x1 = 0.2029 | 1.38132 | 1.37787 | 1.37502 | 1.37351
x1 = 0.245 | 1.38088 | 1.37746 | 1.37462 | 1.37311
x1 = 0.297 | 1.38044 | 1.377 | 1.37426 | 1.37265
x1 = 0.2973 | 1.38067 | 1.37725 | 1.37439 | 1.37289
x1 = 0.3068 | 1.38023 | 1.37678 | 1.37394 | 1.37243
x1 = 0.398 | 1.37907 | 1.37562 | 1.37278 | 1.37127
x1 = 0.4609 | 1.37845 | 1.37502 | 1.37217 | 1.37067
x1 = 0.5434 | 1.37764 | 1.3742 | 1.37135 | –
x1 = 0.6032 | 1.37707 | 1.37364 | 1.3708 | –
x1 = 0.6371 | 1.37669 | 1.37328 | 1.37042 | –
x1 = 0.701 | 1.37604 | 1.37261 | 1.36978 | –
x1 = 0.754 | 1.37567 | 1.37225 | 1.3694 | –
x1 = 0.791 | 1.37529 | 1.37188 | 1.36903 | –
x1 = 0.8296 | 1.37498 | 1.37154 | 1.36872 | –
x1 = 0.8864 | 1.37471 | 1.37132 | 1.36847 | –
x1 = 0.8903 | 1.37434 | 1.3709 | 1.36807 | –
x1 = 0.9113 | 1.37411 | 1.37068 | 1.36785 | –
x1 = 0.9547 | 1.37367 | 1.37025 | 1.36742 | –
x1 = 0.973 | 1.37334 | 1.36994 | 1.3671 | –
x1 = 0.9771 | 1.3733 | 1.36986 | 1.36704 | –
x1 = 1 | 1.37308 | 1.36965 | 1.36683 | –
